Measured values from US9414598B2, “Protecting wood with stabilized boron complexes” (priority 2006, dated 2016).
Like-named read-outs stand apart in the source and are kept apart here. Marks after values point to notes of the source that are not given here.

How the values were obtained:
[1] = for Mean values of the initial boron retention: before leaching, (standard deviations); for Mean of boron retained in wood (std. dev): mean of three samples
Method: Accelerated leaching tests were performed according to AWPA E11-97 (AWPA, 2003). Four Southern yellow pine (Pinus sp.) samples were leached, each in its own leaching flask. At the end of each leaching period, the leachate was collected and the samples were air dried for two weeks. The amount of boron retained in the wood was determined by inductive coupled plasma (ICP) spectrometry after boron was extracted with hydrochloric acid from the ground wood.

Brown rot = conditions: 12 weeks decay
Method: (§1) Decay tests were conducted on wood blocks, both leached and unleached. Samples were halved, with one group subjected to weathering and the other group maintained unweathered. Both sets of samples were subjected to a soil block culture test according to the AWPA E10-01 method. For each block, the percentage of mass loss was determined. These samples were allowed to decay for 12 weeks for brown rot decay and for 16 weeks for white rot decay.

White rot = conditions: for % mass loss (std. dev): White rot, 16 weeks decay
Method: as §1

Text for Coptotermes formosanus: The wood cubes also were subjected to a termite mortality test (Coptotermes formosanus).

- Mean values of the initial boron retention ([1]; Southern yellow pine cubes, samples for Leaching test): 2075.0^a (2.19)^b ppm
- Mean of boron retained in wood (std. dev) ([1]; leaching duration 0 (Not unleached)): 2075.0 (80.18) ppm
- Mean of boron retained in wood (std. dev) ([1]; leaching duration 6 hours): 1005.00 (125.2) ppm
- Mean of boron retained in wood (std. dev) ([1]; leaching duration 24 hours): 737.13 (40.85) ppm
- Mean of boron retained in wood (std. dev) ([1]; leaching duration 2 days): 99.32 (17.84) ppm
- Mean of boron retained in wood (std. dev) ([1]; leaching duration 4 days): 25.37 (2.81) ppm
- Mean of boron retained in wood (std. dev) ([1]; leaching duration 6 days): 2.908 (0.61) ppm
- Mean of boron retained in wood (std. dev) ([1]; leaching duration 8 days): 2.941 (0.83) ppm
- Mean of boron retained in wood (std. dev) ([1]; leaching duration 10 days): 2.89 (0.79) ppm
- Mean of boron retained in wood (std. dev) ([1]; leaching duration 12 days): 2.79 (0.53) ppm
- Mean of boron retained in wood (std. dev) ([1]; leaching duration 14 days): 2.8 (0.82) ppm
- loss of boron on leaching (in words) ([1]; leaching of treated wood cubes): lost most of their boron within 6 hours
- Mean values of the initial boron retention ([1]; samples for Brown rot test): 2227.31 (3.27) ppm
- Mean values of the initial boron retention ([1]; samples for White rot test): 2225.43 (1.27) ppm
Compound: OB(O)O [Boric acid only, Boric acid]
- Termite mortality (%) (Coptotermes formosanus; in vivo): 4.3%
- protection against termites (in words) (Coptotermes formosanus; treated wood cubes, boron-CA-SS after leaching): adequate protection against termites
- % mass loss (std. dev) (Brown rot; Not leached samples): 3.21 (0.22) %
- % mass loss (std. dev) (Brown rot; leached samples): 18.88 (2.30) %
- % mass loss (std. dev) (White rot; Not leached samples): 2.51 (0.51) %
- % mass loss (std. dev) (White rot; leached samples): 16.59 (2.19) %
- decay resistance (in words) (White rot; leached samples, summary of Table 4 for white rot and brown rot): no significant decay resistance
